# In patent US5547962A, “5-amino-8-methyl-7-pyrrolidinylquinoline-3-carboxylic acid derivative” (priority 1993, dated 1996):
# “Also recorded” adds a separate entry of the source. Like-named read-outs stand apart in the source and are kept apart here.
# Columns and labels:
# [1] = system: CHL cells; assay: Chromosomal aberration test with a Chinese hamster lung cell line (CHL); assay type: cell-based
# Description: The chromosomal aberration test was conducted with a Chinese hamster lung cell line (CHL). 2-(2-Furyl)-3-(5-nitro-2-furyl)acrylamide was used as a positive control. Cells treated with the test compounds were cultured for 6 h at 37° C. in 5% CO2 -humidified air. Following the 6 h treatment the cells were washed. Fresh medium was added to the washed cells and they were cultured for a further 18 h. Colcemide was added to the cultures 2 h before the fixation of chromosome preparation, in order to collect metaphase cells.
# [2] = system: Male Hartley guinea pigs; assay type: in vivo; conditions: 10 mg/kg i.v.; for phototoxicity, in words: UVA; for Phototoxicity: number of animals with erythemas/number of animals tested: UVA 90 minutes, 24 h after irradiation
# Description: Male Hartley guinea pigs were intravenously administered test compounds at a dose of 10 mg/kg, and immediately exposed to UVA on their backs for 90 minutes.
# [3] = system: CHL cells; conditions: 31th ICAAC, Abstract No. 1507 (1991); cited from earlier work
# [4] = system: polychromatic erythrocytes (PCEs); assay: Micronucleus test, bone marrow of mice; assay type: in vivo, BDF 1 mice; conditions: percent of the number of MNPCEs per 1,000 PCEs; 250 mg/kg i.p., 24 h
# Description: Nine-week-old male BDF 1 mice were used in this test. The test compounds were injected intraperitoneally with a dose of 250 mg/kg. After 24 h mice were sacrificed and the bone marrow of the femur was collected. Bone marrow smears were fixed on the slides with methanol and stained with Giemsa according to the usual method. For each animal, the number of micronucleated polychromatic erythrocytes (MNPCEs) per 1,000 polychromatic erythrocytes (PCEs) was counted under the microscope. Cyclophosphamide was used as a positive control.
# [5] = system: S. aureus FDA 209P JC-1; assay: Antibacterial activity, MIC by agar dilution; assay type: cell-based; conditions: Staphylococcus aureus, FDA209P; laboratory standard strain, gram +
# Source text: (§1) The strains employed were as follows:
# (§2) Staphylococcus aureus (S. aureus)
# [6] = system: S. aureus HPC292; assay: Antibacterial activity, MIC by agar dilution; assay type: cell-based; conditions: Staphylococcus aureus, clinically isolated strain, gram +
# Source text: as §1, §2
# [7] = system: S. aureus HPC308; assay: Antibacterial activity, MIC by agar dilution; assay type: cell-based; conditions: Staphylococcus aureus, clinically isolated strain, gram +
# Source text: as §1, §2
# [8] = system: S. aureus HPC527; assay: Antibacterial activity, MIC by agar dilution; assay type: cell-based; conditions: Staphylococcus aureus, clinically isolated strain, gram +
# Source text: as §1, §2
# [9] = system: E. coli NIHJ JC-2; assay: Antibacterial activity, MIC by agar dilution; assay type: cell-based; conditions: Escherichia coli, NIHJJC2; laboratory standard strain, gram -
# Source text: as §1
# Escherichia coli (E. coli)
# [10] = system: K. pneumoniae HNR828; assay: Antibacterial activity, MIC by agar dilution; assay type: cell-based; conditions: Klebsiella pneumoniae, clinically isolated strain, gram -
# Source text: as §1
# (§3) Klebsiella pneumoniae (K. pneumoniae)
# [11] = system: K. pneumoniae HNR858; assay: Antibacterial activity, MIC by agar dilution; assay type: cell-based; conditions: Klebsiella pneumoniae, clinically isolated strain, gram -
# Source text: as §1, §3
# [12] = system: K. pneumoniae HNR869; assay: Antibacterial activity, MIC by agar dilution; assay type: cell-based; conditions: Klebsiella pneumoniae, clinically isolated strain, gram -
# Source text: as §1, §3
# [13] = system: K. pneumoniae PCI-602; assay: Antibacterial activity, MIC by agar dilution; assay type: cell-based; conditions: Klebsiella pneumoniae, PCI602; laboratory standard strain, gram -
# Source text: as §1, §3
# [14] = system: S. marcescens HNR1544; assay: Antibacterial activity, MIC by agar dilution; assay type: cell-based; conditions: Serratia marcescens, clinically isolated strain, gram -
# Source text: as §1
# (§4) Serratia marcescens (S. marcescens)
# [15] = system: S. marcescens HNR1767; assay: Antibacterial activity, MIC by agar dilution; assay type: cell-based; conditions: Serratia marcescens, clinically isolated strain, gram -
# Source text: as §1, §4
# [16] = system: S. marcescens HNR1792; assay: Antibacterial activity, MIC by agar dilution; assay type: cell-based; conditions: Serratia marcescens, clinically isolated strain, gram -
# Source text: as §1, §4
# [17] = system: S. marcescens IAM 1184; assay: Antibacterial activity, MIC by agar dilution; assay type: cell-based; conditions: Serratia marcescens, IAM1184; laboratory standard strain, gram -
# Source text: as §1, §4
# [18] = system: E. cloacae 963; assay: Antibacterial activity, MIC by agar dilution; assay type: cell-based; conditions: Enterobacter cloacae, laboratory standard strain, gram -
# Source text: as §1
# (§5) Enterobacter cloacae (E. cloacae)
# [19] = system: E. cloacae HNR1939; assay: Antibacterial activity, MIC by agar dilution; assay type: cell-based; conditions: Enterobacter cloacae, clinically isolated strain, gram -
# Source text: as §1, §5
# [20] = system: E. cloacae HNR1941; assay: Antibacterial activity, MIC by agar dilution; assay type: cell-based; conditions: Enterobacter cloacae, clinically isolated strain, gram -
# Source text: as §1, §5
# [21] = system: E. cloacae HNR1946; assay: Antibacterial activity, MIC by agar dilution; assay type: cell-based; conditions: Enterobacter cloacae, clinically isolated strain, gram -
# Source text: as §1, §5
# [22] = system: E. faecalis HPC948; assay: Antibacterial activity, MIC by agar dilution; assay type: cell-based; conditions: Enterococcus faecalis, clinically isolated strain, gram +
# Source text: as §1
# (§6) Enterococcus faecalis (E. faecalis)
# [23] = system: E. faecalis HPC975; assay: Antibacterial activity, MIC by agar dilution; assay type: cell-based; conditions: Enterococcus faecalis, clinically isolated strain, gram +
# Source text: as §1, §6
# [24] = system: E. faecalis HPC984; assay: Antibacterial activity, MIC by agar dilution; assay type: cell-based; conditions: Enterococcus faecalis, clinically isolated strain, gram +
# Source text: as §1, §6
# [25] = system: A. calcoaceticus HNR904; assay: Antibacterial activity, MIC by agar dilution; assay type: cell-based; conditions: Acinetobacter calcoaceticus, clinically isolated strain, gram -
# Source text: as §1
# (§7) Acinetobacter calcoaceticus (A. calcoaceticus)
# [26] = system: A. calcoaceticus HNR916; assay: Antibacterial activity, MIC by agar dilution; assay type: cell-based; conditions: Acinetobacter calcoaceticus, clinically isolated strain, gram -
# Source text: as §1, §7
# [27] = system: A. calcoaceticus HNR939; assay: Antibacterial activity, MIC by agar dilution; assay type: cell-based; conditions: Acinetobacter calcoaceticus, clinically isolated strain, gram -
# Source text: as §1, §7
# [28] = system: clinically isolated strains (HPC527, HPC308 and HPC292) of S aureus; assay: Comparison with analogous compounds: antibacterial activity (MIC) against clinically isolated strains of S. aureus; assay type: cell-based, Staphylococcus aureus; conditions: comparison to Tables 7 and 8
# Description: Minimum inhibitory concentrations (MICs) of test compounds were determined by agar dilution procedure as described in the standard method of the Japan Society of Chemotherapy (Chemotherapy (Tokyo), 29,1, 76 (1981)). The strains employed were as follows:
# All the data of the antibacterial activity, chromosomal aberration activity, phototoxicity and inducement of convulsions were obtained from the same tests methods as those described above. Among this, the data of the antibacterial activity shown in Tables 7 and 8 are MICs (minimum inhibitory concentrations) value against clinically isolated strains (HPC527, HPC308 and HPC292) of S aureus which is a representative gram-positive bacteria.
# [29] = Tissue distribution after oral administration, HPLC; assay type: in vivo, Sprague-Dawley rats; conditions: for Kp: po, 5 mg/kg
# Description: Seven-week-old male Sprague-Dawley rats were used. The test compounds were orally administered at a dose of 5 mg/kg to rats fasted overnight. At intervals of 0.083, 0.25, 0.5, 1, 2, 4, 6, 8, 12 and 24 h after administration, the rats were anesthetized with ether and blood samples were taken from the abdominal aorta. Plasma samples were obtained from the blood samples in the usual way. The lungs and kidneys were removed after collection of blood, and homogenated with 4 ml and 7 ml of 1 M HCl-citrate buffer (pH 4.0), respectively.
# The concentration of the test compounds in the biological fluids (plasma and in each tissue tested) was determined by HPLC method. Hydrochloric acid and ether were added to 0.5 ml of plasma or 0.5 g of each tissue homogenate. The mixture was shaken and centrifuged. After the removal of the organic phase, aq. NaOH solution, phosphate buffer (pH 7.0) and chloroform were added to the aqueous phase. The mixture was shaken and centrifuged. The organic phase was then concentrated. The residue was dissolved and subjected to HPLC. The concentration of the test compounds in each biological fluid at Tmax (time of the maximum concentration in plasma) is shown in Table 6.
# [30] = times higher than ciprofloxacin, at Tmax
SMILES,"toxicity (chromosomal aberration), in words [1]","phototoxicity, in words [2]",Incidence of MNPCEs [4],Phototoxicity: number of animals with erythemas/number of animals tested [2],MIC [5],MIC [6],MIC [7],MIC [8],MIC [9],MIC [10],MIC [11],MIC [12],MIC [13],MIC [14],MIC [15],MIC [16],MIC [17],MIC [18],MIC [19],MIC [20],other results
"Cc1c(N2C[C@@H](N)C3(CC3)C2)c(F)cc2c(=O)c(C(=O)O)cn(C3CC3)c12 [Reference Compound C, 7-((S)-7-amino-5-azaspiro[2.4]hept-5-yl)-1-cyclopropyl-6-fluoro-1,4-dihydro-8-methyl-4-oxoquinoline-3-carboxylic acid]",observed,no phototoxicity,,,,,,,,,,,,,,,,,,,"death of guinea pigs ([2]; phototoxicity test): death of one guinea pig out of five; chromosomal aberrational activity, in words [3]: potent chromosomal aberrational activity"
"Cc1c(N2C[C@@H](N)C3(CC3)C2)c(F)c(N)c2c(=O)c(C(=O)O)cn(C3CC3)c12 [Example 10, 5-Amino-7-((S)-7-amino-5-azaspiro[2.4]hept-5-yl)-1-cyclopropyl-6-fluoro-1,4-dihydro-8-methyl-4-oxoquinoline-3-carboxylic acid]",did not show,,0.18%,0/5,0.025 µg/mL,1.56 µg/mL,0.39 µg/mL,0.025 µg/mL,0.012 µg/mL,3.13 µg/mL,0.2 µg/mL,1.56 µg/mL,0.003 µg/mL,0.05 µg/mL,6.25 µg/mL,3.13 µg/mL,0.1 µg/mL,0.025 µg/mL,0.1 µg/mL,3.13 µg/mL,"MIC [21]: 0.2 µg/mL; MIC [22]: 0.39 µg/mL; MIC [23]: 1.56 µg/mL; MIC [24]: 0.1 µg/mL; MIC [25]: 1.56 µg/mL; MIC [26]: 0.012 µg/mL; MIC [27]: 0.2 µg/mL; antibacterial activity compared with reference compound, in words [28]: higher antibacterial activity than the analogous reference compound B; also recorded: excellent antibacterial activity as potent as the analogous reference compound C; also recorded: much higher antibacterial activity than the analogous reference compound I; Tmax ([29]; plasma, rat, 5 mg/kg oral): 15 min; Cmax ([29]; plasma, rat, 5 mg/kg oral, read-out: Concentration in plasma at Tmax): 580 ng/mL; Concentration in kidney at Tmax ([29]; rat, 5 mg/kg oral): 8.5 µg/g; Concentration in lung at Tmax ([29]; rat, 5 mg/kg oral): 4.0 µg/g; Kp ([29]; rat, kidney, read-out: concentration ratio (tissue/plasma), kidney): 15; Kp ([29]; rat, lung, read-out: concentration ratio (tissue/plasma), lung): 6.9; a/b: concentration ratio (tissue/plasma) kidney, Example 10/ciprofloxacin [29, 30]: 4.2; a/b: concentration ratio (tissue/plasma) lung, Example 10/ciprofloxacin [29, 30]: 8.6; a/b: kidney concentration, Example 10/ciprofloxacin [29, 30]: 7.4; a/b: lung concentration, Example 10/ciprofloxacin [29, 30]: 16"
"Cc1c(N2CC[C@H](N)C2)c(F)c(N)c2c(=O)c(C(=O)O)cn(C3CC3)c12.Cl [Example 12, 5-Amino-7-((S)-3-amino-1-pyrrolidinyl)-1-cyclopropyl-6-fluoro-1,4-dihydro-8-methyl-4-oxoquinoline-3-carboxylic acid hydrochloride]",did not show,did not show,0.16%,0/5,0.025 µg/mL,1.56 µg/mL,0.78 µg/mL,0.025 µg/mL,0.025 µg/mL,3.13 µg/mL,0.2 µg/mL,1.56 µg/mL,0.006 µg/mL,0.05 µg/mL,12.5 µg/mL,1.56 µg/mL,0.1 µg/mL,0.025 µg/mL,0.2 µg/mL,6.25 µg/mL,"MIC [21]: 0.2 µg/mL; MIC [22]: 0.39 µg/mL; MIC [23]: 1.56 µg/mL; MIC [24]: 0.1 µg/mL; MIC [25]: 12.5 µg/mL; MIC [26]: 0.05 µg/mL; MIC [27]: 0.78 µg/mL; antibacterial activity compared with reference compound, in words ([28]; hydrochloride): much higher antibacterial activity than the analogous reference compound E; also recorded: higher antibacterial activity than the analogous reference compound F; also recorded: much higher antibacterial activity than the analogous reference compound I"
